According to the OligoGym collection:
These antisense oligonucleotides have a phosphorothioate backbone; sugars and methylation of C are not fully specified.

Assays:
Conditions in all cases: ASO
CTNNB1 = target: CTNNB1
MAP2K7 = target: MAP2K7
RELA = target: RELA
GNAI3 = target: GNAI3
Also: test concentration or dose not given here.

## CTTGAGTAGCCATTGTCCAC
CTNNB1
  remaining target (mRNA or protein) (fraction of control): ≥ 1

## CTTTAGTAAGGCAGTCTTTG
MAP2K7
  remaining target (mRNA or protein) (fraction of control): 0.7

## GACAGCGTTCCTTCCCCA
RELA
  remaining target (mRNA or protein) (fraction of control): ≥ 1

## GACGAGCCATTCGCCGGA
RELA
  remaining target (mRNA or protein) (fraction of control): 0.52

## GACGCCGCCATCTTCCCCGC
MAP2K7
  remaining target (mRNA or protein) (fraction of control): 0.7

## GACTCCTTCTTCAGCACT
GNAI3
  remaining target (mRNA or protein) (fraction of control): 0.48

## GAGTCCACCAGGCGGCCGCT
MAP2K7
  remaining target (mRNA or protein) (fraction of control): 0.66

## GAGTTGGAATGTAGTTAG
GNAI3
  remaining target (mRNA or protein) (fraction of control): 0.56

## GATCTGACTCAGCAGGGC
RELA
  remaining target (mRNA or protein) (fraction of control): 0.27

## GCACATCAGCTTGCGAAA
RELA
  remaining target (mRNA or protein) (fraction of control): ≥ 1

## GCACCACATCCAGGTCCATG
MAP2K7
  remaining target (mRNA or protein) (fraction of control): 0.58

## GCACGAACAAGCAACTGAAC
CTNNB1
  remaining target (mRNA or protein) (fraction of control): 0.37

## GCACTTGTAGCGGAAGCG
RELA
  remaining target (mRNA or protein) (fraction of control): ≥ 1

## GCAGTCCTTTCCTACAAG
RELA
  remaining target (mRNA or protein) (fraction of control): 0.95

## GCCATCTTCCCCGCCGCCAC
MAP2K7
  remaining target (mRNA or protein) (fraction of control): 0.75

## GCCATTGTCCACGCTGGATT
CTNNB1
  remaining target (mRNA or protein) (fraction of control): ≥ 1

## GCCGGTGAGGAGGGTCCT
RELA
  remaining target (mRNA or protein) (fraction of control): 0.71

## GCCGTTAGTCCGCGGTGACT
MAP2K7
  remaining target (mRNA or protein) (fraction of control): 0.72

## GCGGGACAGCTTCTGTTCCA
MAP2K7
  remaining target (mRNA or protein) (fraction of control): ≥ 1

## GCTCAGGGATGACGTAAA
RELA
  remaining target (mRNA or protein) (fraction of control): 0.45

## GGAGCGCCGCATTTGCTTAA
MAP2K7
  remaining target (mRNA or protein) (fraction of control): 0.75

## GGAGGGCTTGACGTCGCGGT
MAP2K7
  remaining target (mRNA or protein) (fraction of control): 0.96

## GGATGCGCTGACTGATAG
RELA
  remaining target (mRNA or protein) (fraction of control): 0.31

## GGGAGGACGCCGCCATCTTC
MAP2K7
  remaining target (mRNA or protein) (fraction of control): 0.34

## GGTAGTACAGCGCCTTCACA
MAP2K7
  remaining target (mRNA or protein) (fraction of control): 0.82

## GGTATCTTTTCTTCTGTT
GNAI3
  remaining target (mRNA or protein) (fraction of control): 0.48

## GGTTGGCCGCCGGCCAAAGC
MAP2K7
  remaining target (mRNA or protein) (fraction of control): ≥ 1

## GTACGCACAAGAGCCTCTAT
CTNNB1
  remaining target (mRNA or protein) (fraction of control): 0.29

## GTCCTGAGCAAGTTCACAGA
CTNNB1
  remaining target (mRNA or protein) (fraction of control): 0.37

## GTCTGACTTTAGCATCTC
GNAI3
  remaining target (mRNA or protein) (fraction of control): 0.56

## GTCTGTGCTGTTGCCAAG
RELA
  remaining target (mRNA or protein) (fraction of control): 0.87

## GTGTTTCTACAATGCCTG
GNAI3
  remaining target (mRNA or protein) (fraction of control): 0.37

## GTTGTATGGTATACTTCAAA
CTNNB1
  remaining target (mRNA or protein) (fraction of control): 0.69

## GTTGTTGGTCTGGATGCG
RELA
  remaining target (mRNA or protein) (fraction of control): 0.63

## TAAAGAGTGCTAAGATTC
GNAI3
  remaining target (mRNA or protein) (fraction of control): 0.72

## TAAAGTTATTCTTCTCTT
GNAI3
  remaining target (mRNA or protein) (fraction of control): 0.88

## TAACGGACTCCTCTTTAT
GNAI3
  remaining target (mRNA or protein) (fraction of control): 0.25

## TAATTGCTGTCACTCCCT
GNAI3
  remaining target (mRNA or protein) (fraction of control): 0.65

## TAGAGTGATTATGAATTAAT
CTNNB1
  remaining target (mRNA or protein) (fraction of control): 0.7

## TAGCAGTTTTGTCAGTTCAG
CTNNB1
  remaining target (mRNA or protein) (fraction of control): ≥ 1

## TAGCCATTGATCTTGATG
RELA
  remaining target (mRNA or protein) (fraction of control): 0.78

## TAGCCATTGTCCACGCTGGA
CTNNB1
  remaining target (mRNA or protein) (fraction of control): 0.23

## TAGCCCGTCTGCTTCATGAT
MAP2K7
  remaining target (mRNA or protein) (fraction of control): 0.76

## TATTGGAACCTGTGTATT
GNAI3
  remaining target (mRNA or protein) (fraction of control): 0.54

## TCAACTTCACATCTTCCA
GNAI3
  remaining target (mRNA or protein) (fraction of control): 0.62

## TCACACACTGGATTCCCA
RELA
  remaining target (mRNA or protein) (fraction of control): 0.81

## TCACACAGTAGGAAGATC
RELA
  remaining target (mRNA or protein) (fraction of control): 0.74

## TCACTAGGCGAGTTATAG
RELA
  remaining target (mRNA or protein) (fraction of control): 0.53

## TCACTCTCGTCCGAAGAA
GNAI3
  remaining target (mRNA or protein) (fraction of control): 0.41

## TCAGCTTGAGTAGCCATTGT
CTNNB1
  remaining target (mRNA or protein) (fraction of control): 0.31

## TCATAGTCCGGCTTGGTGGG
MAP2K7
  remaining target (mRNA or protein) (fraction of control): ≥ 1

## TCCAGGGAGGACGCCGCCAT
MAP2K7
  remaining target (mRNA or protein) (fraction of control): 0.64

## TCCAGGTTGAGGTCGATCCT
MAP2K7
  remaining target (mRNA or protein) (fraction of control): 0.68

## TCGCCACACCTTCATTCCTA
CTNNB1
  remaining target (mRNA or protein) (fraction of control): 0.37

## TCTTCCCCGCCGCCACCGCC
MAP2K7
  remaining target (mRNA or protein) (fraction of control): 0.77

## TGAACGTCCCAAAGCACTGC
MAP2K7
  remaining target (mRNA or protein) (fraction of control): 0.86

## TGAGTAGCCATTGTCCACGC
CTNNB1
  remaining target (mRNA or protein) (fraction of control): 0.35

## TGGCACAGGTGAAGTGAG
GNAI3
  remaining target (mRNA or protein) (fraction of control): 0.29

## TGGTCTTCACTCTCGTCC
GNAI3
  remaining target (mRNA or protein) (fraction of control): 0.21

## TGTCATCTTGCCCAGAATGC
MAP2K7
  remaining target (mRNA or protein) (fraction of control): 0.68

## TGTTTTCAATGGGAGAATAA
CTNNB1
  remaining target (mRNA or protein) (fraction of control): 0.63

## TTAAGAAATCCAAGTGAT
GNAI3
  remaining target (mRNA or protein) (fraction of control): ≥ 1

## TTAAGGAAGAGAATGATT
GNAI3
  remaining target (mRNA or protein) (fraction of control): ≥ 1

## TTATTGCAAGTGAGGTTAGA
CTNNB1
  remaining target (mRNA or protein) (fraction of control): 0.51

## TTCCGGAAGCGCATCTTCCA
MAP2K7
  remaining target (mRNA or protein) (fraction of control): 0.86

## TTCTCCTGCTTCAGCTTTGC
MAP2K7
  remaining target (mRNA or protein) (fraction of control): 0.69

## TTCTCTTGAAGCATCGTATC
CTNNB1
  remaining target (mRNA or protein) (fraction of control): 0.2

## TTGCTGCCAGTGACTAACAG
CTNNB1
  remaining target (mRNA or protein) (fraction of control): 0.46

## TTGTCCACGCTGGATTTTCA
CTNNB1
  remaining target (mRNA or protein) (fraction of control): 0.52
